Experimental data: patent publication US20180296523A1, “USE OF POLYMETHOXYLATED FLAVONES TO AMELIORATE CIRCADIAN RHYTHM DISORDERS” (THE BOARD OF REGENTS OF THE UNIVERSITY OF TEXAS SY, priority 2017, published 2018)
“Also recorded” adds a separate entry of the source.

How the values were obtained:
[1] = tested on: HFD-fed WT and Clock^Δ19/Δ19 C57BL/6J mice; experiment: Diet-induced obese (DIO) mouse model, HFD-fed WT and Clock^Δ19/Δ19 mice; format: in vivo; settings: for body weight gain: 10-week treatment
Protocol: For diet-induced obesity, male mice at 6 weeks of age were fed with HFD (D12492, Research Diets) until the end of the experimental protocol. The mice were treated with either vehicle (DMSO) or NOB (200 mg/kg body weight) via oral gavage every other day, in the time window of ZT8-10, throughout the experimental period. An every-other-day dosing regimen was chosen at the indicated level based on several reasons. First, previous in vivo studies have used similar overall amounts for mouse treatment (100-125 mg/kg/day) (Lee et al., 2013; Li et al., 2006). The oral gavage procedure was done in late afternoon (ZT8-10) prior to the start of their active phase, reasoning that this may coincide with the time-window adopted by previous studies. Second, daily dosing was not chosen to avoid entraining the experimental mice with the procedure per se as an artificial zeitgeber. Furthermore, pilot pharmacokinetic (PK) assays were done under a single-dose condition (Fig. S7). […] Therefore, it was reasoned that every-other day dosing helps avoid any incomplete daily clearance over the chronic experimental period (10 weeks). Weekly body weight was monitored in different treatment mice for 10 weeks. Body mass composition was measured at the end of experiments using a […] spectrometer (Bruker Optics, Texas) (Garcia et al., 2013). A control group of mice were fed with regular chow diet (Purina 5001) in parallel with the two treatment groups in HFD. For db/db and db/db Clock^[…]/[…] mice, male mice at 6-8 weeks of age were group-housed (2-3/cage) and maintained on regular chow diets. Mice were subjected to oral gavage with either DMSO or NOB as described above. Energy expenditure was examined by measuring oxygen consumption with indirect calorimetry as described (Chutkow et al., 2010; Daniels et al., 2010). After 8 weeks of treatments described above, mice from each group were placed at room temperature (22° C.-24° C.) in the chambers of a Comprehensive Lab Animal Monitoring System (CLAMS, Columbus Instruments, Columbus, Ohio). After mice adapted to the metabolic chamber, volume of O2 consumption and CO2 production was continuously recorded over a 24-hr period. Average O2 consumption was calculated and compared between different treatments. Food and water were provided ad libitum. To measure food intake, food pellets were weighted every three hours over a 24-hr period in mice treated as above. The daily food intake was calculated from averaged food intake of 3 independent experiments. Serum samples were obtained at ZT2 from treated mice as previously described (Jeong et al., 2015). Hepatic triglyceride and cholesterol were extracted as previously described (Liu et al., 2012). The triglyceride and cholesterol levels in liver and serum were assessed by Serum Triglyceride Determination Kit (Sigma) and Cholesterol Assay Kit (Cayman), respectively. The assay plates were read by a TECAN M200 instrument (Tecan) following the manufacturer's instructions. Glucose tolerance test (GTT) and insulin tolerance test (ITT) were performed largely as described (He et al., 2015; Jeong et al., 2015). Briefly, after overnight and 5-hr fasting, GTT and ITT were conducted at ZT2 and ZT8 respectively. Glucose levels were measured from tail blood before and 15, 30, 60, or 120 min after injection of either 1 g/kg glucose or 0.75 U/kg insulin (Sigma) at ZT2 and ZT8 respectively by using the ONETOUCH UltraMini blood glucose monitoring system (LifeScan). Serum insulin levels were measured with the Rat/Mouse Insulin Elisa kit (Millipore) according to the manufacturer's instructions. The plasma samples were collected at ZT2 as described above for lipid assays. For microscopic analysis of lipid accumulation in liver, tissue samples were collected and immediately embedded in Tissue-Tek OCT cryostat molds (Leica) and then frozen at -80° C. Tissue sections were stained in 0.5% Oil Red O and counterstained with Mayer's hematoxylin for 1 min. […]

RORα-LBD = target: T1, RORα-LBD (Homo sapiens, UniProt P35398); experiment: Radioligand receptor binding assay with 25-[3H]-OHC, RORα-LBD; settings: in the presence of 4.5 nM 25-[3H]-OHC
T1 sequence (P35398 272-510 limits assumed): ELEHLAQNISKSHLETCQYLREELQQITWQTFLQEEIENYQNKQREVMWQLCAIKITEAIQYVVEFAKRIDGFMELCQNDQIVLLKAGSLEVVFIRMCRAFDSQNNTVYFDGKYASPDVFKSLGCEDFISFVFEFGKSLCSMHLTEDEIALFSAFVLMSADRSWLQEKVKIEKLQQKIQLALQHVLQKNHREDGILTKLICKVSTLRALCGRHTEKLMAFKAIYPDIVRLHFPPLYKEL
Protocol: Ligand binding was determined by filter binding assays to calculate the Kd value. […] Ki was determined using the Cheng-Prusoff equation.

[2] = tested on: Bmal1 promoter (RORE) with RORα or RORγ; experiment: Bmal1 promoter-driven luciferase reporter in Hepa1-6 cells; format: cell-based, mouse
Excerpt: Plasmids containing the retinoic acid-related orphan receptor response element (RORE) from mouse Bmal1 promoter, pcDNA3.1B-G4DBD-RORαLBD and pcDNA3.1BG4DBD-RORγLBD were constructed in our lab. Specifically, the 1960 bp sequences (−1830/+130) of the mouse Bmal1 promoter harboring either WT ([…] (SEQ ID NO:1) and […] (SEQ ID NO:2)) or mutant ([…] (SEQ ID NO:3)) RORE were PCR amplified from mouse genomic DNA and cloned into pGL3-promoter luciferase vector. For expression of RORα or RORγ-GAL4 protein, mouse RORα-LBD (aa 261-523) or RORγ-LBD (aa 250-516) were PCR amplified from mouse genomic DNA and cloned into a GAL4-DBD-containing vector, pcDNA3.1B.
For mammalian one-hybrid assays, HEK293T cells were cotransfected with pcDNA3.1B-G4DBD-RORα/γLBD, pGL4.31 and TK promoter Renilla luciferase construct (tK.pRL). To investigate the regulation of the Bmal1 reporter, Hepa1-6 cells were cotransfected with Bmal1-WT or mutant RORE reporter plasmids, RORα, RORγ or Rev-erbα expression construct along with tK.pRL. Mouse and human siRNA targeting RORα and RORγ were purchased from Santa Cruz. Transfection was performed by Lipfectamine 2000 reagent (Invitrogen) Twenty-four hours after transfection, the cells were treated with vehicle or NOB. Lysates were collected 24 h after treatment, and firefly and Renilla luciferase activities were measured by using a Dual-Luciferase Reporter System (Promega).

[3] = HFD-fed WT mice, serum and liver

Which results are given for `C[C@@H]1O[C@@H](O[C@H]2[C@H](Oc3cc(O)c4c(c3)O[C@H](c3ccc(O)cc3)CC4=O)O[C@H](CO)[C@@H](O)[C@@H]2O)[C@H](O)[C@H](O)[C@H]1O` [naringin, reference compound]?
difference of treatment effects between WT and Clock^Δ19/Δ19 mice ([1]; HFD-fed C57BL/6J mice): largely indistinguishable; blood insulin levels ([1]; HFD-fed Clock^Δ19/Δ19 mice): decreased to similar extents; glucose tolerance (GTT) ([1]; HFD-fed Clock^Δ19/Δ19 mice): modest effects on glucose tolerance; insulin sensitivity (ITT) ([1]; HFD-fed Clock^Δ19/Δ19 mice): modest effects on insulin sensitivity; fasting blood glucose levels ([1]; HFD-fed Clock^Δ19/Δ19 mice, daytime and nighttime): failed to reduce fasting blood glucose levels; fasting glucose levels ([1]; HFD-fed WT mice): reduced fasting blood glucose levels; glucose tolerance (GTT) ([1]; HFD-fed WT mice): modest effects on glucose tolerance; insulin sensitivity (ITT) ([1]; HFD-fed WT mice): modest effects on insulin sensitivity; blood insulin levels ([1]; HFD-fed WT mice, vs vehicle): decreased to similar extents; effects on body weight gain and lipid and glucose homeostasis ([1]; HFD-fed mice, compared with nobiletin): significantly attenuated effects; competitive binding to RORα-LBD (RORα-LBD): markedly diminished binding

`COc1ccc(-c2cc(=O)c3c(OC)c(OC)c(OC)c(OC)c3o2)cc1OC` [nobiletin] was tested. Which “lipid droplet formation in liver” value ([1]; DIO WT liver) did it give?
The value was “essentially abolished lipid droplet formation”.

And the “liver steatosis (H&E and Oil Red O staining)” value ([1]; DIO WT liver)?
Its value is “strongly improved liver steatosis”.

What about the adipocyte cell size ([1]; HFD-fed Clock^Δ19/Δ19 mice) of the same compound?
Its adipocyte cell size is “essentially unchanged”.

And the energy expenditure ([1]; HFD-fed Clock^Δ19/Δ19 mice)?
Its energy expenditure is “no increase”.

What about the fat mass ([1]; HFD-fed Clock^Δ19/Δ19 mice) of the same compound?
The fat mass was “essentially unchanged”.

And the food intake ([1]; HFD-fed Clock^Δ19/Δ19 mice)?
Its food intake is “did not change food intake”.

And the “glucose and lipid homeostasis” value ([1]; HFD-fed Clock^Δ19/Δ19 mice)?
The value was “did not significantly improve”.

What about the respiratory quotient ([1]; HFD-fed Clock^Δ19/Δ19 mice) of the same compound?
Its respiratory quotient is “no increase”.

And the body weight gain ([1]; HFD-fed Clock^Δ19/Δ19 mice)?
The body weight gain was “very modest reduction in body weight gain”.

What about the “beneficial effect on liver steatosis” value ([1]; HFD-fed Clock^Δ19/Δ19 mice, compared with WT mice) of the same compound?
The value was “markedly attenuated”.

What about the fasting glucose levels ([1]; HFD-fed WT mice) of the same compound?
The fasting glucose levels was “lowered fasting glucose levels”.

And the “fat mass (body mass composition)” value ([1]; HFD-fed WT mice)?
The value was “reduction in fat mass”.

And the “glucose tolerance (GTT)” value ([1]; HFD-fed WT mice)?
The value was “significantly improved”.

What about the “insulin sensitivity (ITT)” value ([1]; HFD-fed WT mice) of the same compound?
Its value is “significantly improved”.

And the respiratory quotient ([1]; HFD-fed WT mice)?
The respiratory quotient was “increased”.

And the “white adipose cell size” value ([1]; HFD-fed WT mice)?
The value was “reduction”.

And the body weight gain ([1]; HFD-fed WT mice, 200 mg/kg oral every other day, vs vehicle)?
Its body weight gain is “significantly attenuated body weight gain”.

And the “total cholesterol (TC) levels” value [1, 3]?
Its value is “significantly diminished”.

And the “total triglyceride (TG) levels” value [1, 3]?
The value was “significantly diminished”.

And the “oxygen consumption (energy expenditure)” value ([1]; HFD-fed WT mice, throughout the circadian cycle)?
The value was “greatly elevated oxygen consumption”.

And the blood insulin levels ([1]; HFD-fed WT mice, vs vehicle)?
Its blood insulin levels is “strongly reduced”.

What about the food intake ([1]; HFD-fed WT mice, vs vehicle) of the same compound?
Its food intake is “not significantly altered”.

And the “white adipose cell size” value ([1]; HFD-fed WT mice, listed as NOB)?
The value was “reduced visceral WAT cell size”.

What about the “Bmal1 reporter activation with ectopic expression of REV-ERBα” value [2] of the same compound?
Its value is “abolished reporter activation”.

And the “induction of Bmal1 reporter after knockdown of RORα/γ by siRNAs” value ([2]; Hepa1-6 cells)?
The value was “abrogated the nobiletin-mediated induction”.

What about the “Bmal1 promoter-driven luciferase reporter activity” value ([2]; WT RORE, in the presence of RORα or RORγ) of the same compound?
The value was “dose-dependently increase”.

What about the “competitive binding to RORα-LBD” value (RORα-LBD) of the same compound?
Its value is “direct binding; also recorded: robust competitive binding”.
